According to patent US20230085307A1, “PYRIDAZINONE COMPOUND AND HERBICIDE” (NISSAN CHEMICAL CORPORATION, priority 2019, published 2023):

Key:
wheat [1] = assay: Test Example 4: effect on crop by soil treatment (Table 19, symbol e); type: in vivo; conditions: amount of applied herbicide 214 g/ha
In short: (§1)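 Seeds were sown in sterilized diluvial soil and covered with about 1.5 cm of soil. An emulsion formulation diluted with water to a predetermined herbicide amount was sprayed evenly onto the soil surface. Plants grew in a greenhouse at 25° C. to 30° C., and the effect was scored three weeks after application using criteria from an earlier test.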

transplanted rice = assay: Test Example 1: effect on crop, application before weed generation under submerged conditions (Table 16, symbol a); type: in vivo; conditions: amount of applied herbicide 214 g/ha
Description: [Test Example 1] Herbicidal Activity Test by Application before Weed Generation under Submerged Conditions After alluvial soil was placed into 1/10000 are of Wagner pot, water was poured and mixed to form a submerged condition having a water depth of 4 cm. Seeds of late watergrass, Japanese bulrush, and oval-leafed pondweed were sowed in a mixed manner in the aforementioned pot, and then 2.5 leaf stage rice plant seedlings were transplanted thereto. On the day of sowing seeds, the emulsion agent of the compound of the present invention prepared according to Formulation Example 2 was diluted with water so as to achieve a predetermined herbicide amount, and the diluted emulsion agent was applied to the surface of the water. The pot was placed in a greenhouse at 25° C. to 30° C. for growth of the plants. Three weeks after the herbicide application, the effect of the herbicide on each plant was evaluated according to the following criteria. Evaluation Criteria 5: Herbicidal rate of 90% or more (almost completely withered) 4: Herbicidal rate of 70% or more and less than 90% 3: Herbicidal rate of 40% or more and less than 70% 2: Herbicidal rate of 20% or more and less than 40% 1: Herbicidal rate of 5% or more and less than 20% 0: Herbicidal rate of 5% or less (almost no effect)

false cleavers = assay: Test Example 5: herbicidal effect by foliage application, plastic box (Table 20, symbol Q); type: in vivo, false cleavers (Galium spurium); conditions: foliage application, 214 g/ha, three weeks after application
In short: (§2)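 Plants sown in sterilized diluvial soil and grown 14 days in a greenhouse at 25° C to 30° C, then sprayed on the foliage with the compound's emulsion diluted in water to a predetermined herbicide amount. Injury to weeds and crops scored three weeks after application on a visual rating scale.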

beet [2] = assay: Test Example 5: effect on crop by foliage application, plastic box (Table 20, symbol f); type: in vivo; conditions: 214 g/ha, three weeks after application
In short: as §2

directly sowed rice = assay: Test Example 3: effect on crop by foliage application, Wagner pot (Table 18, symbol b); type: in vivo; conditions: 214 g/ha
In short: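 Plants were sown in alluvial soil held under 0.1–0.5 cm standing water and grown 14 days in a greenhouse at 25–30 °C. An emulsifiable formulation, water-diluted to the set dose, was then sprayed onto the foliage, and effects were scored three weeks later using previously defined criteria.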

wheat [3] = assay: Test Example 5: effect on crop by foliage application, plastic box (Table 20, symbol e); type: in vivo; conditions: 214 g/ha, three weeks after application
In short: as §2

soybean [4] = assay: Test Example 5: effect on crop by foliage application, plastic box (Table 20, symbol d); type: in vivo; conditions: 214 g/ha, three weeks after application
In short: as §2

corn [5] = assay: Test Example 4: effect on crop by soil treatment (Table 19, symbol c); type: in vivo; conditions: amount of applied herbicide 214 g/ha
In short: as §1

corn [6] = assay: Test Example 5: effect on crop by foliage application, plastic box (Table 20, symbol c); type: in vivo; conditions: 214 g/ha, three weeks after application
In short: as §2

beet [7] = assay: Test Example 4: effect on crop by soil treatment (Table 19, symbol f); type: in vivo; conditions: amount of applied herbicide 214 g/ha
In short: as §1

soybean [8] = assay: Test Example 4: effect on crop by soil treatment (Table 19, symbol d); type: in vivo; conditions: amount of applied herbicide 214 g/ha
In short: as §1

rapeseed [9] = assay: Test Example 4: effect on crop by soil treatment (Table 19, symbol g); type: in vivo; conditions: amount of applied herbicide 214 g/ha
In short: as §1

rapeseed [10] = assay: Test Example 5: effect on crop by foliage application, plastic box (Table 20, symbol g); type: in vivo; conditions: 214 g/ha, three weeks after application
In short: as §2

COc1ccc2c(-c3c(O)c(C)nn(C)c3=O)c(-c3ccccc3OC)sc2c1 [Compound No. 3-065, 5-hydroxy-4-(6-methoxy-2-(2-methoxyphenyl)benzo[b]thiophen-3-yl)-2,6-dimethylpyridazin-3(2H)-one]
e: wheat, effect on crop grade (wheat [1]): 0 (Herbicidal rate of 5% or less (almost no effect)) | Effect on crop, a: transplanted rice (transplanted rice): 0 (Herbicidal rate of 5% or less (almost no effect)) | melting point: 243 to 244 °C | Q: false cleavers, herbicidal effect grade (false cleavers): 5 (Herbicidal rate of 90% or more (almost completely withered)) | f: beet, effect on crop grade (beet [2]): 5 (Herbicidal rate of 90% or more (almost completely withered)) | effect on directly sowed rice (b) (directly sowed rice): 1 (Herbicidal rate of 5% or more and less than 20%) | e: wheat, effect on crop grade (wheat [3]): 2 (Herbicidal rate of 20% or more and less than 40%) | d: soybean, effect on crop grade (soybean [4]): 5 (Herbicidal rate of 90% or more (almost completely withered)) | c: corn, effect on crop grade (corn [5]): 0 (Herbicidal rate of 5% or less (almost no effect)) | c: corn, effect on crop grade (corn [6]): 0 (Herbicidal rate of 5% or less (almost no effect)) | f: beet, effect on crop grade (beet [7]): 3 (Herbicidal rate of 40% or more and less than 70%) | d: soybean, effect on crop grade (soybean [8]): 0 (Herbicidal rate of 5% or less (almost no effect)) | g: rapeseed, effect on crop grade (rapeseed [9]): 5 (Herbicidal rate of 90% or more (almost completely withered)) | g: rapeseed, effect on crop grade (rapeseed [10]): 5 (Herbicidal rate of 90% or more (almost completely withered))
